Here are results for 13 molecules from ChEMBL document CHEMBL4346726 (Bioorg Med Chem Lett, 2019).

Test [1] in a line: Inhibition of HCV genotype 3a NS3/4a protease by enzymatic assay. Set-up: species or system Hepatitis C virus subtype 3a.
The next test deals with Hepatitis C virus. Description: Antiviral activity against HCV genotype 3a in RLuc cells assessed as reduction in viral replication by luciferase reporter gene assay. In kind it is functional, organism-based, Hepacivirus hominis, subtype 3a.

One may read the Ki as a dissociation constant, usually derived from enzyme kinetics or from competition with a known ligand. The low end stands for higher affinity, the high end for lower affinity. What is called EC50 is the concentration giving half of the maximal effect.

Molecule `CC[C@@H]1[C@@H]2CN(C(=O)[C@H](C(C)(C)C)NC(=O)O[C@@H]3C[C@H]3CCCCCc3nc4ccc(OC)cc4nc3O2)[C@@H]1C(=O)N[C@]1(C(=O)NS(=O)(=O)C2(C)CC2)C[C@H]1C` yielded a Ki in test [1] of 0.838 nM. The EC50 in the test with Hepatitis C virus (Hepatitis C virus, subtype 3a) stood at 109 nM.
Turning to `CC[C@@H]1[C@@H]2CN(C(=O)[C@H](C(C)(C)C)NC(=O)O[C@@H]3C[C@H]3CCCC3CC3c3nc4ccc(OC)cc4nc3O2)[C@@H]1C(=O)N[C@]1(C(=O)NS(=O)(=O)C2(C)CC2)C[C@H]1C(F)F` (stereo in doubt; 45), the affinity in test [1], expressed as Ki, was 1.7 nM. Further, the EC50 in the test on Hepatitis C virus amounted to 128 nM.
`COc1ccc2nc3c(nc2c1)O[C@H]1CN(C(=O)[C@H](C(C)(C)C)NC(=O)O[C@@H]2C[C@H]2CCCCC3)[C@H](C(=O)N[C@]2(C(=O)NS(=O)(=O)C3(C)CC3)C[C@H]2C(F)F)[C@@H]1CC(C)C` had a Ki in test [1] of 0.63 nM. In the test on Hepatitis C virus (Hepatitis C virus, subtype 3a), the EC50 came to 1120 nM.
In the same order, the values of `COc1ccc2nc3c(nc2c1)O[C@H]1CN(C(=O)[C@H](C(C)(C)C)NC(=O)O[C@@H]2C[C@H]2CCCCC3)[C@H](C(=O)N[C@]2(C(=O)NS(=O)(=O)C3(C)CC3)C[C@H]2C(F)F)[C@@H]1Cc1ccccc1` are 0.87 nM and 1110 nM.
In the same order, the values of `COc1ccc2nc3c(nc2c1)O[C@H]1CN(C(=O)[C@H](C(C)(C)C)NC(=O)O[C@@H]2C[C@H]2CCCCC3)[C@H](C(=O)N[C@]2(C(=O)NS(=O)(=O)C3CC3)C[C@H]2CC(F)F)[C@@H]1C` are 0.92 nM and 375 nM.
In the same order, the values of `COc1ccc2nc3c(nc2c1)O[C@@H]1C[C@@H](C(=O)N[C@]2(C(=O)NS(=O)(=O)C4(C)CC4)C[C@H]2C(F)F)N(C1)C(=O)[C@H](C(C)(C)C)NC(=O)O[C@@H]1C[C@H]1CCCCC3` are 0.165 nM and 74 nM.
Molecule `CCC[C@@H]1[C@@H]2CN(C(=O)[C@H](C(C)(C)C)NC(=O)O[C@@H]3C[C@H]3CCCCCc3nc4ccc(OC)cc4nc3O2)[C@@H]1C(=O)N[C@]1(C(=O)NS(=O)(=O)C2(C)CC2)C[C@H]1C(F)F` displayed a Ki in test [1] of 0.12 nM. The EC50 with Hepatitis C virus (Hepatitis C virus, subtype 3a) was 36 nM.
In the same order, the values of `CC[C@@H]1[C@@H]2CN(C(=O)[C@H](C(C)(C)C)NC(=O)O[C@@H]3C[C@H]3CCCCC(F)c3nc4ccc(OC)cc4nc3O2)[C@@H]1C(=O)N[C@]1(C(=O)NS(=O)(=O)C2(C)CC2)C[C@H]1C(F)F` (stereo partly specified) are 0.13 nM and 35 nM.
`CC[C@@H]1[C@@H]2CN(C(=O)[C@H](C(C)(C)C)NC(=O)O[C@@H]3C[C@H]3CCCC3CC3c3nc4ccc(OC)cc4nc3O2)[C@@H]1C(=O)N[C@]1(C(=O)NS(=O)(=O)C2(C)CC2)C[C@H]1C(F)F` (stereo in doubt; 46) gave a Ki in test [1] of 9.4 nM. In the test on Hepatitis C virus, the EC50 was 829 nM.
Turning to `CC[C@@H]1C[C@]1(NC(=O)[C@@H]1[C@H](C)[C@@H]2CN1C(=O)[C@H](C(C)(C)C)NC(=O)O[C@@H]1C[C@H]1CCCCCc1nc3ccc(OC)cc3nc1O2)C(=O)NS(=O)(=O)C1CC1`, the inhibitory constant (Ki) in test [1] turned out to be 0.53 nM. Moreover, in the test on Hepatitis C virus (Hepatitis C virus, subtype 3a), the EC50 came out at 188 nM.
Take `COc1ccc2nc3c(nc2c1)O[C@H]1CN(C(=O)[C@H](C(C)(C)C)NC(=O)O[C@@H]2C[C@H]2CCCCC3)[C@H](C(=O)N[C@]2(C(=O)NS(=O)(=O)C3(C)CC3)C[C@H]2C(F)F)[C@@H]1C1CC1`: the affinity in test [1], expressed as Ki, was 4.9 nM. In the test on Hepatitis C virus (Hepatitis C virus, subtype 3a), the EC50 turned out to be 1160 nM.
In the same order, the values of `CC[C@@H]1[C@@H]2CN(C(=O)[C@H](C(C)(C)C)NC(=O)O[C@@H]3C[C@H]3CC/C=C/C(F)(F)c3nc4ccc(OC)cc4nc3O2)[C@@H]1C(=O)N[C@]1(C(=O)NS(=O)(=O)C2(C)CC2)C[C@H]1C(F)F` are 0.053 nM and 5.3 nM.
In the same order, the values of `COc1ccc2nc3c(nc2c1)O[C@H]1CN(C(=O)[C@H](C(C)(C)C)NC(=O)O[C@@H]2C[C@H]2CCCCC3)[C@H](C(=O)N[C@]2(C(=O)NS(=O)(=O)C3CC3)C[C@H]2CCF)[C@@H]1C` are 1.3 nM and 419 nM.
